Data taken from patent US10898481B2 (priority 2018, dated 2021).

target: hA2a/CHO (Homo sapiens (Human), UniProt P29274); assay: cAMP inhibition assay in hA2a/CHO cells, 10 μM adenosine; type: cell-based; settings: read-out: cAMP & FLIPR IC50 (nM) hA2a;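 note: compounds added to cells 30 min ahead of adenosine, then a further 30 min at 37 °C with adenosine before cAMP detection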
Sequence (P29274 whole entry): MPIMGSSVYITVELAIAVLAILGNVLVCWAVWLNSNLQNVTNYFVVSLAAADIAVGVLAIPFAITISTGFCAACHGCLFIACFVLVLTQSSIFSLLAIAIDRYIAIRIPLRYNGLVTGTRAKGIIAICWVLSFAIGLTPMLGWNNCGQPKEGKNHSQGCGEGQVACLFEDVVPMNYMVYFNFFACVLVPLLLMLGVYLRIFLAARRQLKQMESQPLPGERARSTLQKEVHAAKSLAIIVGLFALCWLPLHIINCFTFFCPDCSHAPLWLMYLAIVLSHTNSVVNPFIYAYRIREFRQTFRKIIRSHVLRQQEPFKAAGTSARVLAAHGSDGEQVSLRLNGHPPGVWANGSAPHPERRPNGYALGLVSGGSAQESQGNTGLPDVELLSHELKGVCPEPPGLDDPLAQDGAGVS
Protocol: hA2a/CHO, hA2b/CHO, hA3/CHO and mA2a/CHO (Genscript) were plated at 5×10^3 cells/well into 384-well polystyrene plates at the day of experiment. Compounds were pre-incubated with cells for 30 min at 37° C., 5% CO2. Then 10 μM adenosine was added to the cells and incubated for 30 min at 37° C., 5% CO2. Detection reagent (CISBIO) was added and the plates were incubated for 60 min at room temperature. The signal was captured by Envision.

Structure (SMILES) | IC50
Cc1cnc2ccc(-c3nc(C(=O)NC(C)Cn4cncn4)c(N)nc3-c3ncco3)cn12 (racemic) [Example 306, rac-N-(1-(1H-1,2,4-triazol-1-yl)propan-2-yl)-3-amino-6-(3-methylimidazo [1,2-a]pyridin-6-yl)-5-(oxazol-2-yl) pyrazine-2-carboxamide] | 14 nM
COC1CCOC1CNC(=O)c1nc(-c2ccc3ncc(C)n3c2)c(-c2ncco2)nc1N (single isomer, unassigned) [Example 279, 3-amino-N-((3-methoxytetrahydrofuran-2-yl)methyl)-6-(3-methylimidazo[1,2-a]pyridin-6-yl)-5-(oxazol-2-yl)pyrazine-2-carboxamide] | 1.4 nM
COC1CCOC1CNC(=O)c1nc(-c2ccc3ncc(C)n3c2)c(-c2ncco2)nc1N (single isomer, unassigned) [Example 280, 3-amino-N-((3-methoxytetrahydrofuran-2-yl)methyl)-6-(3-methylimidazo[1,2-a]pyridin-6-yl)-5-(oxazol-2-yl)pyrazine-2-carboxamide] | 0.6 nM
Cc1cnc2ccc(-c3nc(C(=O)NCC4CCOC4)c(N)nc3-c3ccccn3)cn12 (single isomer, unassigned) [Example 304, 3-amino-6-[3-methylimidazo[1,2-a]pyridin-6-yl]-N-[[oxolan-3-yl]methyl]-5-(pyridin-2-yl)pyrazine-2-carboxamide] | 8.2 nM
Cc1cnc2ccc(-c3nc(C(=O)NCC4CCOC4)c(N)nc3-c3ccccn3)cn12 (single isomer, unassigned) [Example 305, 3-amino-6-[3-methylimidazo[1,2-a]pyridin-6-yl]-N-[[oxolan-3-yl]methyl]-5-(pyridin-2-yl)pyrazine-2-carboxamide] | 12 nM
COC1CCCC(NC(=O)c2nc(-c3ccc4ncc(C)n4c3)c(-c3ncco3)nc2N)C1 (single isomer, unassigned; isomer4) [Example 295, 3-amino-N-(3-methoxycyclohexyl)-6-(3-methylimidazo[1,2-a]pyridin-6-yl)-5-(oxazol-2-yl) pyrazine-2-carboxamide (isomer4)] | 13 nM
Cc1cnc2ccc(-c3nc(C(=O)NCC4CCCOC4)c(N)nc3-c3ncco3)cn12 (single isomer, unassigned; isomer 1) [Example 167, 3-amino-6-(3-methylimidazo[1,2-a]pyridin-6-yl)-5-(oxazol-2-yl)-N-((tetrahydro-2H-pyran-3-yl)methyl)pyrazine-2-carboxamide (isomer 1)] | 1.2 nM
Cc1cnc2ccc(-c3nc(C(=O)NCC4OCC4(C)C)c(N)nc3-c3ncco3)cn12 (single isomer, unassigned; isomer 1) [Example 288, 3-amino-N-((3,3-dimethyloxetan-2-yl)methyl)-6-(3-methylimidazo[1,2-a]pyridin-6-yl)-5-(oxazol-2-yl)pyrazine-2-carboxamide (isomer 1)] | 0.6 nM
COC1CCCC(NC(=O)c2nc(-c3ccc4ncc(C)n4c3)c(-c3ncco3)nc2N)C1 (single isomer, unassigned; isomer 1) [Example 292, 3-amino-N-(3-methoxycyclohexyl)-6-(3-methylimidazo[1,2-a]pyridin-6-yl)-5-(oxazol-2-yl)pyrazine-2-carboxamide (isomer 1)] | 0.4 nM
Cc1cnc2ccc(-c3nc(C(=O)NCC4CCCOC4)c(N)nc3-c3ncco3)cn12 (single isomer, unassigned; isomer 2) [Example 168, 3-amino-6-(3-methylimidazo[1,2-a]pyridin-6-yl)-5-(oxazol-2-yl)-N-((tetrahydro-2H-pyran-3-yl)methyl) pyrazine-2-carboxamide (isomer 2)] | 1.1 nM
Cc1cnc2ccc(-c3nc(C(=O)NCC4OCC4(C)C)c(N)nc3-c3ncco3)cn12 (single isomer, unassigned; isomer 2) [Example 289, 3-amino-N-((3,3-dimethyloxetan-2-yl)methyl)-6-(3-methylimidazo[1,2-a]pyridin-6-yl)-5-(oxazol-2-yl)pyrazine-2-carboxamide (isomer 2)] | 1.9 nM
COC1CCCC(NC(=O)c2nc(-c3ccc4ncc(C)n4c3)c(-c3ncco3)nc2N)C1 (single isomer, unassigned; isomer 2) [Example 293, 3-amino-N-(3-methoxycyclohexyl)-6-(3-methylimidazo[1,2-a]pyridin-6-yl)-5-(oxazol-2-yl)pyrazine-2-carboxamide (isomer 2)] | 0.4 nM
COC1CCCC(NC(=O)c2nc(-c3ccc4ncc(C)n4c3)c(-c3ncco3)nc2N)C1 (single isomer, unassigned; isomer 3) [Example 294, 3-amino-N-(3-methoxycyclohexyl)-6-(3-methylimidazo[1,2-a]pyridin-6-yl)-5-(oxazol-2-yl)pyrazine-2-carboxamide (isomer 3)] | 0.2 nM
Cc1cnc2ccc(-c3nc(C(=O)NCc4cccc(N5[C@@H]6CC[C@H]5CN(C)C6)n4)c(N)nc3-c3ncco3)cn12 [Cmpd. 172, 3-amino-N-[(6-[3-methyl-3,8-diazabicyclo[3.2.1]octan-8-yl]pyridin-2-yl)methyl]-6-[3-methylimidazo[1,2-a]pyridin-6-yl]-5-(1,3-oxazol-2-yl)pyrazine-2-carboxamide] | 5.1 nM
Cc1cnc2ccc(-c3nc(C(=O)NCc4cccc(N5CC6(CCN(C)C6)C5)n4)c(N)nc3-c3ncco3)cn12 [Cmpd. 175, 3-amino-N-((6-(6-methyl-2,6-diazaspiro[3.4]octan-2-yl)pyridin-2-yl)methyl)-6-(3-methylimidazo[1,2-a]pyridin-6-yl)-5-(oxazol-2-yl)pyrazine-2-carboxamide] | 0.9 nM
Cc1cnc2ccc(-c3nc(C(=O)NC[C@H]4CCCN4C)c(N)nc3-c3cccc(F)c3)cn12 [Cmpd. 231, (R)-3-amino-5-(3-fluorophenyl)-6-(3-methylimidazo[1,2-a]pyridin-6-yl)-N-((1-methylpyrrolidin-2-yl)methyl)pyrazine-2-carboxamide] | 6.2 nM
Cc1cnc2ccc(-c3nc(CNC(=O)[C@H]4CCCN4C)c(N)nc3-c3ccc(F)c(F)c3)cn12 [Cmpd. 257, (2R)—N-[[3-amino-5-(3,4-difluorophenyl)-6-[3-methylimidazo[1,2-a]pyridin-6-yl]pyrazin-2-yl]methyl]-1-methylpyrrolidine-2-carboxamide] | 1.5 nM
Cc1cnc2ccc(-c3nc(C(=O)NC[C@H]4CCCN4C)c(N)nc3-c3ccccc3)cn12 [Cmpd. 259, 3-amino-6-[3-methylimidazo[1,2-a]pyridin-6-yl]-N-[[(2R)-1-methylpyrrolidin-2-yl]methyl]-5-phenylpyrazine-2-carboxamide] | 3.7 nM
Cc1cnc2ccc(-c3nc(C(=O)NC[C@H]4CCCN4C)c(N)nc3-c3ccc(F)c(F)c3)cn12 [Cmpd. 272, 3-amino-5-(3,4-difluorophenyl)-6-[3-methylimidazo[1,2-a]pyridin-6-yl]-N-[[(2R)-1-methylpyrrolidin-2-yl]methyl]pyrazine-2-carboxamide] | 37 nM
Cc1cnc2ccc(-c3nc(C(=O)NCc4cccc(N5[C@@H]6C[C@H]5CN(C)C6)n4)c(N)nc3-c3ncco3)cn12 [Example 174, 3-amino-N-((6-(3-methyl-3,6-diazabicyclo[3.1.1]heptan-6-yl)pyridin-2-yl)methyl)-6-(3-methylimidazo[1,2-a]pyridin-6-yl)-5-(oxazol-2-yl)pyrazine-2-carboxamide] | 6.9 nM
Cc1cnc2ccc(-c3nc(C(=O)NCC(C)(C)C(=O)N(C)C)c(N)nc3-c3ncco3)cn12 [Example 281, 3-[(3-amino-6-[3-methylimidazo[1,2-a]pyridin-6-yl]-5-(1,3-oxazol-2-yl)pyrazin-2-yl)formamido]-N,N,2,2-tetramethylpropanamide] | 0.3 nM
Cc1cnc2ccc(-c3nc(C(=O)NCc4cccc(N5C[C@H]6C[C@@H]5CN6C)n4)c(N)nc3-c3ncco3)cn12 [Example 282, 3-amino-N-((6-((1R,4R)-5-methyl-2,5-diazabicyclo[2.2.1]heptan-2-yl)pyridin-2-yl)methyl)-6-(3-methylimidazo[1,2-a]pyridin-6-yl)-5-(oxazol-2-yl) pyrazine-2-carboxamide] | 4.5 nM
Cc1cnc2ccc(-c3nc(C(=O)NCc4cccc(N5C[C@@H]6C[C@H]5CN6C)n4)c(N)nc3-c3ncco3)cn12 [Example 283, 3-amino-N-((6-((lS,4S)-5-methyl-2,5-diazabicyclo[2.2.1]heptan-2-yl)pyridin-2-yl)methyl)-6-(3-methylimidazo[1,2-a]pyridin-6-yl)-5-(oxazol-2-yl)pyrazine-2-carboxamide] | 3.4 nM
Cc1cnc2ccc(-c3nc(C(=O)NCc4cccc(N5CC6(CN(C)C6)C5)n4)c(N)nc3-c3ncco3)cn12 [Example 284, 3-amino-N-[(6-[6-methyl-2,6-diazaspiro[3.3]heptan-2-yl]pyridin-2-yl)methyl]-6-[3-methylimidazo[1,2-a]pyridin-6-yl]-5-(1,3-oxazol-2-yl)pyrazine-2-carboxamide] | 0.7 nM
Cc1cnc2ccc(-c3nc(C(=O)NCc4cccc(N5CCN(C)[C@H](C)C5)n4)c(N)nc3-c3ncco3)cn12 [Example 285, 3-amino-N-([6-[(3R)-3,4-dimethylpiperazin-1-yl]pyridin-2-yl]methyl)-6-[3-methylimidazo[1,2-a]pyridin-6-yl]-5-(1,3-oxazol-2-yl)pyrazine-2-carboxamide] | 4.5 nM
Cc1cnc2ccc(-c3nc(C(=O)NCc4cccc(N5CCN(C)[C@@H](C)C5)n4)c(N)nc3-c3ncco3)cn12 [Example 286, (S)-3-amino-N-((6-(3,4-dimethylpiperazin-1-yl)pyridin-2-yl)methyl)-6-(3-methylimidazo[1,2-a]pyridin-6-yl)-5-(oxazol-2-yl)pyrazine-2-carboxamide] | 3.2 nM
Cc1cnc2ccc(-c3nc(C(=O)NCc4cccc(N5CCN(C)C[C@@H]5C)n4)c(N)nc3-c3ncco3)cn12 [Example 287-2, (S)-3-amino-N-((6-(2,4-dimethylpiperazin-1-yl)pyridin-2-yl)methyl)-6-(3-methylimidazo[1,2-a]pyridin-6-yl)-5-(oxazol-2-yl)pyrazine-2-carboxamide] | 4.4 nM
Cc1cnc2ccc(-c3nc(CNC(=O)[C@H]4CCCN4C)c(N)nc3-n3nccn3)cn12 [Example 290, (2R)—N-[(3-amino-6-[3-methylimidazo[1,2-a]pyridin-6-yl]-5-(2H-1,2,3-triazol-2-yl)pyrazin-2-yl)methyl]-1-methylpyrrolidine-2-carboxamide] | 5.8 nM
